Series [1] can be described thus: RP-HPLC retention time as measure of hydrophilicity/hydrophobicity. It is filed as physicochemical. To be noted: chromatographic, Cosmosil 5C18-AR-II 4.6 x 150 mm, linear gradient 30–70% MeCN/H2O (0.1% TFA) for 30 min, 1 mL/min, UV 220 nm. On the procedure: […] In all cases, the retention times of the (S)-Dab-containing peptides were shorter than those of the (R)-Dab-containing peptides, which were similar to those bearing L-Orn. The retention times of the cyclic peptides were shorter for Tat > D-Ser > L-Thr > L-Ser, while peptides bearing the undecanoic acid moiety eluted […] than those bearing the decanoic acid by about 2 min.

Series [2] concerns S. cerevisiae (ATCC204504). It is filed as cell-based. Particulars: ATCC204504, 24 h. As to the method:
Bacto yeast extract (0.63 g, 70161, Fluka, Barcelona, Spain), peptone (1.00 g, 26421, Mikuni, Japan), and glucose (1.00 g, 16806-25, Nacalai tesque, Japan) were added to H2O (50 mL) at room temperature and the mixture was heated to 60 °C. After 30 min, the mixture was sterilized by heating in an autoclave at 121 °C for 20 min.
DMSO (8 µL, 13406-55, Nacalai tesque, Japan) was added to YPD medium (750 µL). The test fungus culture solution (3 µL) was added to this solution (1.5 mL).
The inhibitor (each 1.0 mg; 3a–h, 4a–b, 5a–b, 6a–b, 7, 8) was dissolved in DMSO (40 µL).
The prepared test bacteria (50 µL) were placed in A1–A12 of a 96-well plate. Bk analogue (50 µL) was added to A1, pipetting was performed, and then 50 µL was extracted from A1 and placed in A2. This operation was repeated until A11, and 50 µL extracted from A11 was discarded. The well plate was closed and incubated at 30 °C. After 24 h, the MIC values were evaluated.

Converted amounts (≈) assume the structure as drawn. Starred links: 1 amine or outer side, 2 acyl side, 3 side chain; linkers in the order of their positions; H or OH if unused. Positions of bridges follow the written chain, without caps; N, C: chain ends. Non-standard residues stand in square brackets, D forms with d. Residues, ends and D or L forms follow the SMILES beside them. *: point of attachment. X12 = CCCCCCCCCCC(=O)N[C@H](C(=O)NC[C@H](CC(=O)[*:1])N[*:2])[C@@H](C)O; X11 = CCCCCCCCNC(=O)[C@H](O)[C@@H](O)C(=O)NC[C@H](CC(=O)[*:1])N[*:2]; X10 = CCCCCCCCCCCC(=O)N[C@@H](CO)C(=O)NC[C@@H](CC(=O)[*:1])N[*:2]; X13 = CCCCCCCCCCC(=O)N[C@@H](CO)C(=O)NC[C@H](CC(=O)[*:1])N[*:2]; X5 = CCCCCCCCCCCC(=O)N[C@@H](CO)C(=O)NC[C@H](CC(=O)[*:1])N[*:2]; X6 = CCCCCCCCCCC(=O)N[C@@H](CO)C(=O)NC[C@@H](CC(=O)[*:1])N[*:2]; X7 = CCCCCCCCCCCC(=O)N[C@H](CO)C(=O)NC[C@@H](CC(=O)[*:1])N[*:2]; X1 = CCCCCCCCCCC(=O)N[C@H](CO)C(=O)NC[C@@H](CC(=O)[*:1])N[*:2]; X4 = CCCCCCCCCCCC(=O)N[C@H](CO)C(=O)NC[C@H](CC(=O)[*:1])N[*:2]; X8 = CCCCCCCCCCC(=O)N[C@H](CO)C(=O)NC[C@H](CC(=O)[*:1])N[*:2]; X9 = CCCCCCCCNC(=O)[C@H](O)[C@@H](O)C(=O)*; Undecanoyl = CCCCCCCCCCC(=O)*; Lauroyl = CCCCCCCCCCCC(=O)*; Orn = NCCC[C@H](N)C(=O)O

In turn, `CCCCCCCCCCC(=O)N[C@@H](CO)C(=O)NC[C@@H]1CC(=O)N[C@H](CO)C(=O)N[C@H](Cc2ccc(O)cc2)C(=O)N[C@H](CC(N)=O)C(=O)NCC(=O)N[C@@H](CC(N)=O)C(=O)N[C@@H](CO)C(=O)N[C@@H](CC(N)=O)C(=O)N1` [Compound 3a, Cyclo-[Undecanoic Acid-Ser-(S)-7-D-Ser-D-Tyr-D-Asn-Gly-Asn-Ser-Asn]] ([dS][dY][dN]GNSN; linker N-C via X13) showed a tR in series [1] of 9.3 min. The MIC in series [2] is >200 mg/L.
Molecule `CCCCCCCCCCCC(=O)N[C@@H](CO)C(=O)NC[C@@H]1CC(=O)N[C@H](CO)C(=O)N[C@H](Cc2ccc(O)cc2)C(=O)N[C@H](CC(N)=O)C(=O)NCC(=O)N[C@@H](CC(N)=O)C(=O)N[C@@H](CO)C(=O)N[C@@H](CC(N)=O)C(=O)N1` [Compound 3b, Cyclo-[Dodecanoic Acid-Ser-(S)-7-D-Ser-D-Tyr-D-Asn-Gly-Asn-Ser-Asn]] ([dS][dY][dN]GNSN; linker N-C via X5) showed a tR in series [1] of 11.7 min. Also, in series [2], the MIC was 100 mg/L (≈ 90.4 µM).
In series [1], `CCCCCCCCCCC(=O)N[C@H](CO)C(=O)NC[C@@H]1CC(=O)N[C@H](CO)C(=O)N[C@H](Cc2ccc(O)cc2)C(=O)N[C@H](CC(N)=O)C(=O)NCC(=O)N[C@@H](CC(N)=O)C(=O)N[C@@H](CO)C(=O)N[C@@H](CC(N)=O)C(=O)N1` [Compound 3c, Cyclo-[Undecanoic Acid-D-Ser-(S)-7-D-Ser-D-Tyr-D-Asn-Gly-Asn-Ser-Asn]] ([dS][dY][dN]GNSN; linker N-C via X8) showed a tR of 9.4 min. The MIC in series [2] was >200 mg/L.
On the same counts, the results for `CCCCCCCCCCCC(=O)N[C@H](CO)C(=O)NC[C@@H]1CC(=O)N[C@H](CO)C(=O)N[C@H](Cc2ccc(O)cc2)C(=O)N[C@H](CC(N)=O)C(=O)NCC(=O)N[C@@H](CC(N)=O)C(=O)N[C@@H](CO)C(=O)N[C@@H](CC(N)=O)C(=O)N1` [Compound 3d, Cyclo-[Dodecanoic Acid-D-Ser-(S)-7-D-Ser-D-Tyr-D-Asn-Gly-Asn-Ser-Asn]] ([dS][dY][dN]GNSN; linker N-C via X4) are 11.8 min and >200 mg/L.
On the same counts, the results for `CCCCCCCCCCC(=O)N[C@@H](CO)C(=O)NC[C@H]1CC(=O)N[C@H](CO)C(=O)N[C@H](Cc2ccc(O)cc2)C(=O)N[C@H](CC(N)=O)C(=O)NCC(=O)N[C@@H](CC(N)=O)C(=O)N[C@@H](CO)C(=O)N[C@@H](CC(N)=O)C(=O)N1` [Compound 3e, Cyclo-[Undecanoic Acid-Ser-(R)-7-D-Ser-D-Tyr-D-Asn-Gly-Asn-Ser-Asn]] ([dS][dY][dN]GNSN; linker N-C via X6) are 9.4 min and >200 mg/L.
In turn, `CCCCCCCCCCCC(=O)N[C@@H](CO)C(=O)NC[C@H]1CC(=O)N[C@H](CO)C(=O)N[C@H](Cc2ccc(O)cc2)C(=O)N[C@H](CC(N)=O)C(=O)NCC(=O)N[C@@H](CC(N)=O)C(=O)N[C@@H](CO)C(=O)N[C@@H](CC(N)=O)C(=O)N1` [Compound 3f, Cyclo-[Dodecanoic Acid-Ser-(R)-7-D-Ser-D-Tyr-D-Asn-Gly-Asn-Ser-Asn]] ([dS][dY][dN]GNSN; linker N-C via X10) returned a tR in series [1] of 11.8 min. The same molecule displayed an MIC in series [2] of 200 mg/L (≈ 181 µM).
In the same order, the values of `CCCCCCCCCCC(=O)N[C@H](CO)C(=O)NC[C@H]1CC(=O)N[C@H](CO)C(=O)N[C@H](Cc2ccc(O)cc2)C(=O)N[C@H](CC(N)=O)C(=O)NCC(=O)N[C@@H](CC(N)=O)C(=O)N[C@@H](CO)C(=O)N[C@@H](CC(N)=O)C(=O)N1` [Compound 3g, Cyclo-[Undecanoic Acid-D-Ser-(R)-7-D-Ser-D-Tyr-D-Asn-Gly-Asn-Ser-Asn]] ([dS][dY][dN]GNSN; linker N-C via X1) are 9.6 min and >200 mg/L.
For the molecule `CCCCCCCCCCCC(=O)N[C@H](CO)C(=O)NC[C@H]1CC(=O)N[C@H](CO)C(=O)N[C@H](Cc2ccc(O)cc2)C(=O)N[C@H](CC(N)=O)C(=O)NCC(=O)N[C@@H](CC(N)=O)C(=O)N[C@@H](CO)C(=O)N[C@@H](CC(N)=O)C(=O)N1` [Compound 3h, Cyclo-[Dodecanoic Acid-D-Ser-(R)-7-D-Ser-D-Tyr-D-Asn-Gly-Asn-Ser-Asn]] ([dS][dY][dN]GNSN; linker N-C via X7), in series [1], the tR is recorded as 11.8 min. Further, the minimum inhibitory concentration (MIC) in series [2] was >200 mg/L.
For the molecule `CCCCCCCCCCC(=O)N[C@H](C(=O)NC[C@@H]1CC(=O)N[C@H](CO)C(=O)N[C@H](Cc2ccc(O)cc2)C(=O)N[C@H](CC(N)=O)C(=O)NCC(=O)N[C@@H](CC(N)=O)C(=O)N[C@@H](CO)C(=O)N[C@@H](CC(N)=O)C(=O)N1)[C@@H](C)O` [Compound 4a, Cyclo-[Undecanoic Acid-Thr-(S)-7-D-Ser-D-Tyr-D-Asn-Gly-Asn-Ser-Asn]] ([dS][dY][dN]GNSN; linker N-C via X12), the tR in series [1] is given as 10.4 min. The minimum inhibitory concentration (MIC) in series [2] is >200 mg/L.
`CCCCCCCCNC(=O)[C@H](O)[C@@H](O)C(=O)NC[C@@H]1CC(=O)N[C@H](CO)C(=O)N[C@H](Cc2ccc(O)cc2)C(=O)N[C@H](CC(N)=O)C(=O)NCC(=O)N[C@@H](CC(N)=O)C(=O)N[C@@H](CO)C(=O)N[C@@H](CC(N)=O)C(=O)N1` [Compound 5a, Cyclo-[(2R,3R)-2,3-dihydroxy-4-(octylamino)-4-oxobutanoic Acid-(S)-7-D-Ser-D-Tyr-D-Asn-Gly-Asn-Ser-Asn]] ([dS][dY][dN]GNSN; linker N-C via X11): in series [1], the tR came to 5.3 min. In addition, the MIC in series [2] is >200 mg/L.
In the same order, the values of `CCCCCCCCCCC(=O)N[C@@H](CO)C(=O)N[C@H]1CCCNC(=O)[C@H](CC(N)=O)NC(=O)[C@H](CO)NC(=O)[C@H](CC(N)=O)NC(=O)CNC(=O)[C@@H](CC(N)=O)NC(=O)[C@@H](Cc2ccc(O)cc2)NC(=O)[C@@H](CO)NC1=O` [Compound 6a, Cyclo-[Undecanoic Acid-Ser-Orn-D-Ser-D-Tyr-D-Asn-Gly-Asn-Ser-Asn]] (Undecanoyl-S[Orn][dS][dY][dN]GNSN; lactam 2-C) are 9.7 min and >200 mg/L.
In series [1], `CCCCCCCCCCCC(=O)N[C@@H](CO)C(=O)N[C@H]1CCCNC(=O)[C@H](CC(N)=O)NC(=O)[C@H](CO)NC(=O)[C@H](CC(N)=O)NC(=O)CNC(=O)[C@@H](CC(N)=O)NC(=O)[C@@H](Cc2ccc(O)cc2)NC(=O)[C@@H](CO)NC1=O` [Compound 6b, Cyclo-[Dodecanoic Acid-Ser-Orn-D-Ser-D-Tyr-D-Asn-Gly-Asn-Ser-Asn]] (Lauroyl-S[Orn][dS][dY][dN]GNSN; lactam 2-C) had a tR of 12.1 min. For the same molecule, the MIC in series [2] is >200 mg/L.
Take `CCCCCCCCCCC(=O)N[C@H](CO)C(=O)N[C@H]1CCCNC(=O)[C@H](CC(N)=O)NC(=O)[C@H](CO)NC(=O)[C@H](CC(N)=O)NC(=O)CNC(=O)[C@@H](CC(N)=O)NC(=O)[C@@H](Cc2ccc(O)cc2)NC(=O)[C@@H](CO)NC1=O` [Compound 6c, Cyclo-[Undecanoic Acid-D-Ser-Orn-D-Ser-D-Tyr-D-Asn-Gly-Asn-Ser-Asn]] (Undecanoyl-[dS][Orn][dS][dY][dN]GNSN; lactam 2-C): in series [2], the minimal inhibitory concentration (MIC) is >200 mg/L.
On to `CCCCCCCCCCCC(=O)N[C@H](CO)C(=O)N[C@H]1CCCNC(=O)[C@H](CC(N)=O)NC(=O)[C@H](CO)NC(=O)[C@H](CC(N)=O)NC(=O)CNC(=O)[C@@H](CC(N)=O)NC(=O)[C@@H](Cc2ccc(O)cc2)NC(=O)[C@@H](CO)NC1=O` [Compound 6d, Cyclo-[Dodecanoic Acid-D-Ser-Orn-D-Ser-D-Tyr-D-Asn-Gly-Asn-Ser-Asn]] (Lauroyl-[dS][Orn][dS][dY][dN]GNSN; lactam 2-C), for which the tR in series [1] was 11.2 min. Further, the MIC in series [2] is >200 mg/L.
For the molecule `CCCCCCCCCCC(=O)N[C@H](C(=O)N[C@H]1CCCNC(=O)[C@H](CC(N)=O)NC(=O)[C@H](CO)NC(=O)[C@H](CC(N)=O)NC(=O)CNC(=O)[C@@H](CC(N)=O)NC(=O)[C@@H](Cc2ccc(O)cc2)NC(=O)[C@@H](CO)NC1=O)[C@@H](C)O` [Compound 7, Cyclo-[Undecanoic Acid-Thr-Orn-D-Ser-D-Tyr-D-Asn-Gly-Asn-Ser-Asn]] (Undecanoyl-T[Orn][dS][dY][dN]GNSN; lactam 2-C), the tR in series [1] is on record as 10.6 min. The MIC in series [2] is >200 mg/L.
In series [1], `CCCCCCCCNC(=O)[C@H](O)[C@@H](O)C(=O)N[C@H]1CCCNC(=O)[C@H](CC(N)=O)NC(=O)[C@H](CO)NC(=O)[C@H](CC(N)=O)NC(=O)CNC(=O)[C@@H](CC(N)=O)NC(=O)[C@@H](Cc2ccc(O)cc2)NC(=O)[C@@H](CO)NC1=O` [Compound 8, Cyclo-[(2R,3R)-2,3-Dihydroxy-4-(octylamino)-4-oxobutanoic Acid-Orn-D-Ser-D-Tyr-D-Asn-Gly-Asn-Ser-Asn]] (X9-[Orn][dS][dY][dN]GNSN; lactam 1-C) registered a tR of 5.8 min. In addition, the MIC in series [2] was >200 mg/L.

The term MIC denotes the smallest concentration in the dilution series that meets the test's criterion for growth inhibition. A higher MIC goes with a need for much substance.

These data come from PMC8877233, “The Hydrophobicity and Antifungal Potentiation of Burkholdine Analogues” (Molecules, 2022).
